Patent US20250304643A1, “PEPTIDE DUAL AGONISTS OF GIPR AND GLP2R” (BAINAN BIOTECH APS, priority 2021, published 2025)

Assays:
Type in all cases: cell-based
[1] = molecular target: T1, human GLP-1R (Homo sapiens, UniProt P43220); experiment: HitHunter cAMP assay in transiently transfected COS-7 cells, human GLP-1R; conditions: for Efficacy GLP-1R: Emax normalized to highest concentration of endogenous ligand, Table 3; for activation of hGLP-1R: fatty acid at C-terminal residue or position 16
T1 construct: host or cells: COS-7
T1 sequence (P43220 24-463): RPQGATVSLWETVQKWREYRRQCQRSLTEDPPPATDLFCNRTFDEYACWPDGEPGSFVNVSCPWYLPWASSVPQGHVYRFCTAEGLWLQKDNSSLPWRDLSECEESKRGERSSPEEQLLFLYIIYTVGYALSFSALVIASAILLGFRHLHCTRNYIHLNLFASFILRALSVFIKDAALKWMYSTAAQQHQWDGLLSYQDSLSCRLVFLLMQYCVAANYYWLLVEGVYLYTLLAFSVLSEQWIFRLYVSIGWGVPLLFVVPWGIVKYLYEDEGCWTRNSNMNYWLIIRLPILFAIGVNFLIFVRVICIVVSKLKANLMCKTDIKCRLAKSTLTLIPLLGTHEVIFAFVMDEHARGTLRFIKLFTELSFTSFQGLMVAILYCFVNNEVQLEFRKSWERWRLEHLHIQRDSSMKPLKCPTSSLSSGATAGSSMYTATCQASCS
Method: The next day the assay was initiated by washing with HEPES buffered saline (HBS) and followed by an incubation step with assay buffer (HBS added 1 mM isobutyl-1-methylxanthine (IBMX)) for 30 min at 37° C. The ligands were then added and incubated for an additional 30 min at 37° C. After ligand incubation, the HitHunter® CAMP assay (Eurofins DiscoverX, Fremont, […] USA) was carried out according to the manufacturer's instructions. Luminescence was measured by PerkinElmer™ EnVision 2014 Multilabel Reader (PerkinElmer, Waltham, MA). The potencies (EC50 values) were determined by nonlinear regression using GraphPad Prism 9 (San Diego, California, USA). Sigmoid curves were fitted logistically. The efficacies (Emax values) were determined by normalization to the highest concentration applied of the endogenous ligand for each receptor.

[2] = molecular target: T2, human GIPR (Homo sapiens, UniProt P48546); design: host or cells: COS-7; conditions: Emax normalized to highest concentration of endogenous ligand; Table 2
T2 sequence (P48546 22-466): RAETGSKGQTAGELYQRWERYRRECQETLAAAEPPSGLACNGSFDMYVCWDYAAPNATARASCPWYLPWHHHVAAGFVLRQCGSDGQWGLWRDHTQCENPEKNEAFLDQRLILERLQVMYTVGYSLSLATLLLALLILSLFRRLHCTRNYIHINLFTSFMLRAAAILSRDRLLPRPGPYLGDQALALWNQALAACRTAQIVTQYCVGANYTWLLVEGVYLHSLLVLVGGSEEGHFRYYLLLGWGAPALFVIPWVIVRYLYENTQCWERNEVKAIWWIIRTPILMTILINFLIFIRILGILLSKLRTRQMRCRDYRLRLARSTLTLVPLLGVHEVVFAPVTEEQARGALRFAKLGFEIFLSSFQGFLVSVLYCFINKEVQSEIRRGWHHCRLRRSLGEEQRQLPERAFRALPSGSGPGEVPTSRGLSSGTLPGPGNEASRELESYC

[3] = molecular target: T3, human GLP-2R (Homo sapiens, UniProt O95838); experiment: HitHunter cAMP assay in transiently transfected COS-7 cells, human GLP-2R; conditions: Emax normalized to highest concentration of endogenous ligand; Table 2;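 note: cells kept 30 min at 37 °C in buffer with 1 mM IBMX, then given ligand for another 30 min at 37 °C before cAMP readout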
T3 construct: host or cells: COS-7
T3 sequence (O95838 1-553): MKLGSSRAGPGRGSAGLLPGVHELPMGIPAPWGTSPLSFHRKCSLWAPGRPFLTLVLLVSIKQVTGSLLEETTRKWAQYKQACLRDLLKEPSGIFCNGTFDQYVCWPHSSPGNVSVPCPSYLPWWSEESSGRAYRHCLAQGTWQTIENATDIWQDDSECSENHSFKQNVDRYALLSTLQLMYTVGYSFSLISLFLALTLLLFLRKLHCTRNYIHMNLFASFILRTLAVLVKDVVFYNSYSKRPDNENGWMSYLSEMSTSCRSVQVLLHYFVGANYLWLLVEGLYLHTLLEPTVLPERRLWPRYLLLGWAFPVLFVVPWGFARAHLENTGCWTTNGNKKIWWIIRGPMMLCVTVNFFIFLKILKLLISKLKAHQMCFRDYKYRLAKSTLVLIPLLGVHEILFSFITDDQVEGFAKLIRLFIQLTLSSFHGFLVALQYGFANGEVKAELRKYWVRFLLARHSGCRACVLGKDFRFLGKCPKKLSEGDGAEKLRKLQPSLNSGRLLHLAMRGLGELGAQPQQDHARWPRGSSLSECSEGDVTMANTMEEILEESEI
Method: COS-7 cells were cultured at 10% CO2 and 37° C. in Dulbecco's Modified Eagle Medium (DMEM) 1885 supplemented with 10% fetal bovine serum (FBS), 2 mM glutamine, 180 units/ml penicillin, and 45 g/ml streptomycin.
The next day the assay was initiated by washing with HEPES buffered saline (HBS) and followed by an incubation step with assay buffer (HBS added 1 mM isobutyl-1-methylxanthine (IBMX)) for 30 min at 37° C. The ligands were then added and incubated for an additional 30 min at 37° C. After ligand incubation, the HitHunter® CAMP assay (Eurofins DiscoverX, Fremont, 150 USA) was carried out according to the manufacturer's instructions. Luminescence was measured by PerkinElmer™ EnVision 2014 Multilabel Reader (PerkinElmer, Waltham, MA). The potencies (EC50 values) were determined by nonlinear regression using GraphPad Prism 9 (San Diego, California, USA). Sigmoid curves were fitted logistically. The efficacies (Emax values) were determined by normalization to the highest concentration applied of the endogenous ligand for each receptor.

Row | Substance | Efficacy GLP-1R [1] | Efficacy GIPR [2] | Efficacy GLP-2R [3] | activation of hGLP-1R [1]
1 | (C10-diacid)H-Aib-DGTFISDYST-Aib-LDNLAARDFINWLIQTKITK-OH [Compound no. 18] | 10 | 77 | 90 | –
2 | (C16)H-Aib-DGTFISDYST-Aib-LDNLAARDFINWLIQTKITK-OH [Compound no. 5] | 6 | 111 | 109 | –
3 | (C16)H-Aib-DGTFISDYSTILD-Aib-LAARDFINWLIQTKITK-OH [Compound no. 6] | 34 | 108 | 91 | –
4 | (C16)H-Aib-DGTFISDYSTILDNLAARDFIEWLIQTKIT-OH [Compound no. 8] | 19 | 108 | 106 | –
5 | (C16)H-Aib-DGTFISDYSTILDNLAARDFIEWLIQTKITK-OH [Compound no. 7] | 13 | 114 | 101 | –
6 | (C16)HADGTFISDYSTILDAibLAARDFINWLIQTKITKNDWKHNITQ [Compound no. 16] | 2 | 99 | 64 | –
7 | (C16)HADGTFISDYSTILDELAARDFINWLIQTKITKNDWKHNITQ [Compound no. 48] | – | 112 | 69 | –
8 | (C16)HADGTFISDYSTILDNLAAKDFINWLIQTKITK [Compound no. 45] | – | 91 | 59 | –
9 | (C16)HADGTFISDYSTILDNLAARDFIEWLIQTKITKNDWKHNITQ [Compound no. 50] | – | 101 | 70 | –
10 | (C16)HADGTFISDYSTILDNLAARDFINWLIATKITKNDWKHNITQ [Compound no. 52] | – | – | 68 | –
11 | (C16)HADGTFISDYSTILDNLAARDFINWLIETKITKNDWKHNITQ [Compound no. 51] | – | 104 | 66 | –
12 | (C16)HADGTFISDYSTILDNLAARDFINWLIQTKIT [Compound no. 2] | – | 80 | 59 | –
13 | (C16)HADGTFISDYSTILDNLAARDFINWLIQTKITKAEWKHAITQ [Compound no. 49] | – | 105 | 92 | –
14 | (C16)HADGTFISDYSTILDNLAARDFINWLLAQKITK [Compound no. 46] | – | 98 | 82 | –
15 | (C16)HADGTFISDYSTILELLAARDFINWLIQTKITKNDWKHNITQ [Compound no. 15] | 0 | 106 | 70 | –
16 | (C16-diacid)H-Aib-DGTFISDYST-Aib-LDALAARDFIEWLIQTKITK-OH [Compound no. 20] | – | 93 | 88 | –
17 | (C16-diacid)H-Aib-DGTFISDYST-Aib-LDKLAARDFIEWLIQTKITK-OH [Compound no. 22] | – | 91 | 95 | –
18 | (C16-diacid)H-Aib-DGTFISDYST-Aib-LDKLAARDFINWLIETKITK-OH [Compound no. 23] | – | 107 | 86 | –
19 | (C16-diacid)H-Aib-DGTFISDYST-Aib-LDNLAAKDFINWLIQTKITKNDWKHNITQ-OH [Compound no. 42] | – | – | 93 | –
20 | (C16-diacid)H-Aib-DGTFISDYST-Aib-LDNLAARDFINWLIQTKITK-OH [Compound no. 17] | 5 | 98 | 90 | –

Row | Substance | Efficacy GLP-1R [1] | Efficacy GIPR [2] | Efficacy GLP-2R [3] | activation of hGLP-1R [1]
21 | (C16-diacid)H-Aib-DGTFISDYST-Aib-LDNLAARDFINWLIQTKITKNDWKHNITQ-OH [Compound no. 40] | – | 94 | 96 | –
22 | (C16-diacid)H-Aib-EGTFISDYST-Aib-LDALAARDFINWLIQTKITKNDWKHNITQ-OH [Compound no. 41] | 14 | 91 | 74 | –
23 | (C16-diacid)H-Aib-EGTFISDYST-Aib-LDKLAARDFINWLIQTKITK-OH [Compound no. 21] | 10 | 86 | 58 | –
24 | (C16-diacid)H-Aib-EGTFISDYST-Aib-LDNLAAKDFINWLIQTKITKNDWKHNITQ-OH [Compound no. 43] | – | 101 | 73 | –
25 | (C16-diacid)H-Aib-EGTFISDYST-Aib-LDNLAARDFINWLIQTKITK-OH [Compound no. 19] | – | 98 | 81 | –
26 | (C16-diacid)HADGTFISDYSTAibLDNLAARDFINWLIQTKITKNDWKHNITQ [Compound no. 39] | – | 99 | 78 | –
27 | Ac-H-Aib-DGTFISDY-K(γGlu-C16)-T-Aib-LDNLAARDFINWLIQTKITK-OH [Compound no. 34] | – | 75 | 103 | –
28 | Ac-H-Aib-DGTFISDY-K(γGlu-C16)-T-Aib-LDNLAARDFINWLIQTKITKNDWKHNITQ-OH [Compound no. 38] | – | 81 | 89 | –
29 | H-Aib-DG-K(γGlu- γGlu-C10)-FISDYSTILDNLAARDFINWLIQTKITK-OH [Compound no. 26] | 14 | 80 | 91 | –
30 | H-Aib-DG-K(γGlu- γGlu-C16)-FISDYST-Aib-LDNLAARDFINWLIQTKITK-OH [Compound no. 28] | 14 | 105 | 99 | –
31 | H-Aib-DGTF-K(γGlu-C16)-SDYSTILDNLAARDFINWLIQTKITK-OH [Compound no. 10] | 10 | 102 | 23 | –
32 | H-Aib-DGTFISDY-K(γGlu-C10)-T-Aib-LDNLAARDFINWLIQTKITD-OH [Compound no. 30] | 10 | 85 | 81 | –
33 | H-Aib-DGTFISDY-K(γGlu-C16)-T-Aib-LDNLAARDFINWLIQTKITK-OH [Compound no. 29] | 0 | 104 | 124 | –
34 | H-Aib-DGTFISDY-K(γGlu-C16)-TILDNLAARDFINWLIETKITK-OH [Compound no. 32] | – | 89 | 84 | –
35 | H-Aib-DGTFISDYS-K(γGlu-C16)-ILDNLAARDFINWLIQTKITK-OH [Compound no. 12] | 62 | 107 | 79 | –
36 | HADGTFISDYSTAibLDK(γGlu-C18-diacid) LAARDFINWLIQTKGKK [Compound no. 62, reference compound] | – | – | – | capable of activating hGLP-1R
37 | HADGTFISDYSTAibLDNLAARDFINWLIQTKGKKK(γGlu-C18-diacid) [Compound no. 61, reference compound] | – | – | – | capable of activating hGLP-1R
38 | HADGTFISDYSTILDK(γGlu-C18-diacid) LAARDFINWLIQTKGKK [Compound no. 64, reference compound] | – | – | – | capable of activating hGLP-1R
39 | HADGTFISDYSTILDNLAARDFINWLIQTKGKK(γGlu-C18-diacid) [Compound no. 60, reference compound] | – | – | – | capable of activating hGLP-1R
